Laboratory results published in patent US20220267380A1, “Glycopeptides Increasing Lipid Synthesis” (TFCHEM, priority 2019, published 2022).

Tested on: normal human dermal fibroblasts (NHDF)
Experiment: Microscopic observations of human dermal fibroblasts in culture (formation of lipid vesicles)
Type: cell-based
Settings: 48 h, vs untreated cells
Protocol: Normal human dermal fibroblasts (NHDF) were grown with Dulbecco's Modified Eagle
Medium (DMEM) supplemented with Fetal Calf Serum (FCS) 10%, antibiotics (Penicillin 50 U/ml—Streptomycin 50 μg/ml) and L-Glutamine 2 mM final. Cells were grown in 37° C. and 5% CO2 incubator.
Fibroblasts were seeded in 24-well plates and cultured in culture medium for 24 hours. The medium was then replaced by assay medium and cells were incubated for further 24 hours. For the assay, the medium was replaced by assay medium containing or not (control) the test compound at different concentrations. After 48 h the morphological observations were evaluated.

Row | SMILES | morphological observation of fibroblasts (10 mg/ml) | morphological observation of fibroblasts (20 mg/ml) | morphological observation of fibroblasts (13 mg/ml)
1 | C[C@H](NC(=O)[C@H](C)NC(=O)[C@@H](N)CCCCNCC(F)(F)[C@]1(O)O[C@H](CO)[C@H](O)[C@H](O)[C@H]1O)C(=O)O [Compound 1] | no effect | induced the formation of lipid vesicles in fibroblasts | –
2 | CC(=O)N(CCCC[C@H](N)C(=O)O)CC(F)(F)[C@]1(O)O[C@H](CO)[C@H](O)[C@H](O)[C@H]1O [Compound 4] | – | – | induces the formation of lipid vesicles in fibroblasts and cell swelling
